Reference: patent publication EP4635500A1, “THERAPEUTIC AGENT FOR BACTERIAL INFECTION” (Sumitomo Pharma Co., Ltd., priority 2022, dated 2024)
≈ marks a conversion by molar mass, not a printed value. Where two headings read alike, the source gives them in different places.

Tests used:
[1] = tested on: P. aeruginosa; assay: MIC, broth microdilution, CDC/FDA Antibiotic Resistance Isolate Bank (Example 7, Tables 10, 15); assay type: cell-based; conditions: Pseudomonas aeruginosa; for MIC: read-out: MIC
[2] = tested on: Gram-positive bacteria; assay: MIC, agar dilution, anaerobic bacteria (Example 9, Tables 21, 26); assay type: cell-based

Question: `C[C@@H](O)[C@H]1C(=O)N2C(C(=O)O)=C(S[C@@H]3CN[C@H](C(=O)N(C)C)C3)[C@H](C)[C@H]12` [MEPM, meropenem] was tested. Which MIC ([1]; KUB No. 5677, AR Bank #244, no carbapenemase gene) did it give?
Answer: 16 µg/mL (≈ 41.7 µM)

Question: What about the MIC ([1]; KUB No. 5678, AR Bank #245, VIM-2) of the same compound?
Answer: 8 µg/mL (≈ 20.9 µM)

Question: And the MIC ([1]; KUB No. 5684, AR Bank #251, no carbapenemase gene)?
Answer: 1 µg/mL (≈ 2.61 µM)

Question: What about the MIC ([1]; KUB No. 5685, AR Bank #252, no carbapenemase gene) of the same compound?
Answer: 2 µg/mL (≈ 5.22 µM)

Question: What about the MIC ([1]; KUB No. 5686, AR Bank #253, no carbapenemase gene) of the same compound?
Answer: 0.5 µg/mL (≈ 1.3 µM)

Question: What about the MIC ([1]; KUB No. 5687, AR Bank #254, VIM-2) of the same compound?
Answer: 64 µg/mL (≈ 167 µM)

Question: What about the MIC ([1]; KUB No. 5689, AR Bank #256, no carbapenemase gene) of the same compound?
Answer: 2 µg/mL (≈ 5.22 µM)

Question: What about the MIC ([1]; KUB No. 5691, AR Bank #258, no carbapenemase gene) of the same compound?
Answer: 2 µg/mL (≈ 5.22 µM)

Question: What about the MIC ([1]; KUB No. 5692, AR Bank #259, no carbapenemase gene) of the same compound?
Answer: 0.5 µg/mL (≈ 1.3 µM)

Question: What about the MIC ([1]; KUB No. 5694, AR Bank #261, no carbapenemase gene) of the same compound?
Answer: 0.5 µg/mL (≈ 1.3 µM)

Question: And the MIC ([1]; KUB No. 5695, AR Bank #262, no carbapenemase gene)?
Answer: 0.5 µg/mL (≈ 1.3 µM)

Question: And the MIC ([1]; KUB No. 5696, AR Bank #263, no carbapenemase gene)?
Answer: ≤ 0.25 µg/mL

Question: What about the MIC ([1]; KUB No. 5697, AR Bank #264, no carbapenemase gene) of the same compound?
Answer: 2 µg/mL (≈ 5.22 µM)

Question: And the MIC ([1]; KUB No. 5698, AR Bank #265, no carbapenemase gene)?
Answer: 8 µg/mL (≈ 20.9 µM)

Question: And the MIC ([1]; KUB No. 5699, AR Bank #266, no carbapenemase gene)?
Answer: 8 µg/mL (≈ 20.9 µM)

Question: What about the MIC ([1]; KUB No. 5700, AR Bank #267, no carbapenemase gene) of the same compound?
Answer: 2 µg/mL (≈ 5.22 µM)

Question: And the MIC ([1]; KUB No. 5701, AR Bank #268, no carbapenemase gene)?
Answer: 16 µg/mL (≈ 41.7 µM)

Question: And the MIC ([1]; KUB No. 5702, AR Bank #269, no carbapenemase gene)?
Answer: 8 µg/mL (≈ 20.9 µM)

Question: And the MIC ([1]; KUB No. 5703, AR Bank #270, no carbapenemase gene)?
Answer: 2 µg/mL (≈ 5.22 µM)

Question: And the MIC ([1]; KUB No. 5704, AR Bank #271, no carbapenemase gene)?
Answer: 8 µg/mL (≈ 20.9 µM)

Question: What about the MIC ([1]; KUB No. 5705, AR Bank #272, no carbapenemase gene) of the same compound?
Answer: 2 µg/mL (≈ 5.22 µM)

Question: And the MIC ([1]; KUB No. 5747, AR Bank #351, no carbapenemase gene)?
Answer: 16 µg/mL (≈ 41.7 µM)

Question: And the MIC ([1]; KUB No. 5749, AR Bank #353, GES-1)?
Answer: 16 µg/mL (≈ 41.7 µM)

Question: What about the MIC ([1]; KUB No. 5751, AR Bank #355, no carbapenemase gene) of the same compound?
Answer: 8 µg/mL (≈ 20.9 µM)

Question: And the MIC ([1]; KUB No. 5752, AR Bank #356, KPC-2)?
Answer: 32 µg/mL (≈ 83.4 µM)

Question: And the MIC ([1]; KUB No. 5754, AR Bank #358, no carbapenemase gene)?
Answer: 8 µg/mL (≈ 20.9 µM)

Question: And the MIC ([1]; KUB No. 5755, AR Bank #359, no carbapenemase gene)?
Answer: 8 µg/mL (≈ 20.9 µM)

Question: And the MIC ([1]; KUB No. 5756, AR Bank #360, no carbapenemase gene)?
Answer: 16 µg/mL (≈ 41.7 µM)

Question: And the MIC ([1]; KUB No. 5785, AR Bank #439, IMP-18)?
Answer: 64 µg/mL (≈ 167 µM)

Question: What about the MIC ([1]; KUB No. 5786, AR Bank #440, no carbapenemase gene) of the same compound?
Answer: 8 µg/mL (≈ 20.9 µM)

Question: What about the MIC ([1]; KUB No. 5787, AR Bank #441, KPC-2) of the same compound?
Answer: 32 µg/mL (≈ 83.4 µM)

Question: What about the MIC ([1]; KUB No. 5788, AR Bank #443, no carbapenemase gene) of the same compound?
Answer: 16 µg/mL (≈ 41.7 µM)

Question: And the MIC ([1]; KUB No. 5791, AR Bank #447, no carbapenemase gene)?
Answer: 2 µg/mL (≈ 5.22 µM)

Question: What about the MIC ([1]; KUB No. 5793, AR Bank #449, no carbapenemase gene) of the same compound?
Answer: 16 µg/mL (≈ 41.7 µM)

Question: What about the MIC ([1]; KUB No. 5798, AR Bank #455, no carbapenemase gene) of the same compound?
Answer: 16 µg/mL (≈ 41.7 µM)

Question: And the MIC ([1]; KUB No. 5799, AR Bank #456, no carbapenemase gene)?
Answer: 64 µg/mL (≈ 167 µM)

Question: And the MIC ([1]; KUB No. 5801, AR Bank #458, no carbapenemase gene)?
Answer: 1 µg/mL (≈ 2.61 µM)

Question: What about the MIC ([1]; KUB No. 5802, AR Bank #459, no carbapenemase gene) of the same compound?
Answer: 16 µg/mL (≈ 41.7 µM)

Question: And the MIC ([1]; KUB No. 5804, AR Bank #862, no carbapenemase gene)?
Answer: 8 µg/mL (≈ 20.9 µM)

Question: What about the MIC ([1]; KUB No. 5806, AR Bank #864, no carbapenemase gene) of the same compound?
Answer: 64 µg/mL (≈ 167 µM)

Question: What about the MIC ([1]; KUB No. 5813, AR Bank #508, no carbapenemase gene) of the same compound?
Answer: 16 µg/mL (≈ 41.7 µM)

Question: And the MIC ([1]; KUB No. 5815, AR Bank #510, no carbapenemase gene)?
Answer: 0.5 µg/mL (≈ 1.3 µM)

Question: And the MIC ([1]; KUB No. 5817, AR Bank #512, no carbapenemase gene)?
Answer: 16 µg/mL (≈ 41.7 µM)

Question: What about the MIC ([1]; KUB No. 5818, AR Bank #513, no carbapenemase gene) of the same compound?
Answer: 32 µg/mL (≈ 83.4 µM)

Question: And the MIC ([1]; KUB No. 5820, AR Bank #515, no carbapenemase gene)?
Answer: 32 µg/mL (≈ 83.4 µM)

Question: What about the MIC ([1]; KUB No. 5821, AR Bank #516, KPC-2) of the same compound?
Answer: 64 µg/mL (≈ 167 µM)

Question: What about the MIC ([1]; KUB No. 5831, AR Bank #526, no carbapenemase gene) of the same compound?
Answer: 8 µg/mL (≈ 20.9 µM)

Question: And the MIC ([1]; KUB No. 5832, AR Bank #527, no carbapenemase gene)?
Answer: 16 µg/mL (≈ 41.7 µM)

Question: What about the MIC ([1]; KUB No. 5833, AR Bank #528, no carbapenemase gene) of the same compound?
Answer: 8 µg/mL (≈ 20.9 µM)

Question: What about the MIC ([1]; KUB No. 5834, AR Bank #529, no carbapenemase gene) of the same compound?
Answer: 8 µg/mL (≈ 20.9 µM)

Question: What about the MIC50 ([1]; 96 strains of P. aeruginosa) of the same compound?
Answer: 16 µg/mL (≈ 41.7 µM)

Question: What about the MIC80 ([1]; 96 strains of P. aeruginosa) of the same compound?
Answer: 64 µg/mL (≈ 167 µM)

Question: And the MIC50 [2]?
Answer: 0.06 µg/mL (≈ 0.156 µM)

Question: And the MIC90 [2]?
Answer: 2 µg/mL (≈ 5.22 µM)

Question: And the MIC ([2]; ATCC43255, KUB No. 3518 Clostridioides difficile ATCC 43255, read-out: MIC)?
Answer: 2 µg/mL (≈ 5.22 µM)

Question: And the MIC ([2]; ATCC700057, KUB No. 2978 Clostridioides difficile ATCC 700057, read-out: MIC)?
Answer: 2 µg/mL (≈ 5.22 µM)

Question: And the MIC ([2]; ATCCBAA1803, KUB No. 3511 Clostridioides difficile ATCC BAA-1803, read-out: MIC)?
Answer: 4 µg/mL (≈ 10.4 µM)

Question: What about the MIC ([2]; ATCCBAA1870, KUB No. 3385 Clostridioides difficile ATCC BAA-1870, read-out: MIC) of the same compound?
Answer: 4 µg/mL (≈ 10.4 µM)

Question: What about the MIC ([2]; Cutibacterium acnes, ATCC11827) of the same compound?
Answer: ≤ 0.03 µg/mL

Question: What about the MIC ([2]; Eggerthella lenta, ATCC43055) of the same compound?
Answer: 0.5 µg/mL (≈ 1.3 µM)

Question: What about the MIC ([2]; Finegoldia magna, ATCC29328) of the same compound?
Answer: 0.06 µg/mL (≈ 0.156 µM)

Question: And the MICrange ([2]; Gram-positive bacteria)?
Answer: ≤0.03 to 4 µg/mL

Question: And the MIC50 ([2]; Gram-positive bacteria, read-out: MIC50)?
Answer: 0.06 µg/mL (≈ 0.156 µM)

Question: What about the MIC90 ([2]; Gram-positive bacteria, read-out: MIC90) of the same compound?
Answer: 2 µg/mL (≈ 5.22 µM)

Question: What about the MIC ([2]; KUB No. 3013 Bulleidia extructa, read-out: MIC) of the same compound?
Answer: 0.12 µg/mL (≈ 0.313 µM)

Question: And the MIC ([2]; KUB No. 3014 Atropobium rimae, read-out: MIC)?
Answer: 0.06 µg/mL (≈ 0.156 µM)

Question: What about the MIC ([2]; Olsenella uli) of the same compound?
Answer: ≤ 0.03 µg/mL

Question: And the MIC ([2]; Peptoniphilus asaccharolyticus, ATCC14963)?
Answer: ≤ 0.03 µg/mL

Question: And the MIC ([2]; Peptoniphilus indolicus)?
Answer: ≤ 0.03 µg/mL

Question: And the MIC ([2]; Peptostreptococcus anaerobius)?
Answer: 2 µg/mL (≈ 5.22 µM)

Question: What about the MIC ([2]; Schaalia odontolytica, ATCC17929, KUB No. 3488 Actinomyces odontolyticus ATCC 17929, read-out: MIC) of the same compound?
Answer: 0.12 µg/mL (≈ 0.313 µM)
